Key:
in vivo [1] = settings: Sprague-Dawley, rat, iv, 0.5 mg/kg
in vivo [2] = settings: Sprague-Dawley, rat, po, 2 mg/kg

SMILES | clearance (in vivo [1]) | bioavailability (in vivo [2])
CS(=O)(=O)Nc1ccc(-c2csc(NC(=O)N(CCC(c3ccccc3)c3ccccc3)CCN3CCOCC3)n2)cc1 | 63.3 mL/min/kg | 
NS(=O)(=O)c1ccc(-c2nsc(NC(=O)N(CCC(c3ccc(F)cc3)c3ccc(F)cc3)CCN3CCOCC3)n2)cc1 | 26.7 mL/min/kg | 39%
